# Data as given in publication PMC7045321 (ACS Omega, 2020).
# Legend:
# [1] = tested on: S. aureus; assay: Time-kill kinetics in MHB; assay type: cell-based, Staphylococcus aureus; conditions: 4 × MIC in MHB
# [2] = tested on: S. aureus; assay: Time-kill kinetics in MHB with 10% serum; assay type: cell-based, Staphylococcus aureus; conditions: 4 × MIC in MHB with 10% fetal bovine serum (FBS), 37 °C
smiles,measurement,setting,value
CN[C@H](CC(C)C)C(=O)N[C@H]1C(=O)N[C@@H](CC(N)=O)C(=O)N[C@H]2C(=O)N[C@H]3C(=O)N[C@H](C(=O)N[C@H](C(=O)O)c4cc(O)cc(O)c4-c4cc3ccc4O)[C@H](O)c3ccc(c(Cl)c3)Oc3cc2cc(c3O[C@@H]2O[C@H](CO)[C@@H](O)[C@H](O)[C@H]2O[C@H]2C[C@](C)(N)[C@H](O)[C@H](C)O2)Oc2ccc(cc2Cl)[C@H]1O [vancomycin],log reduction after 24 h,[1]; 37 °C,3 log
same,time to complete eradication of viable S. aureus cells,"[1]; ~10^5 CFU mL^–1, 37 °C, followed for 24 h",not complete eradication
same,log reduction in cell viability after 3 h exposure,[2],1 log
